Assay results taken from patent US10975167B2, “Method to reduce pulmonary arterial hypertension by administering inhibitors of nicotinamide phosphoribotransferase” (Arizona Board of Regents on Behalf of the University of …, priority 2017, dated 2021).

Tests used:
[1] = tested on: MCT-induced PH in rats; assay: MCT-PH model, FK-866 analogs as preventive therapy; assay type: in vivo; conditions: for hypertrophy-ratio of RV and LV plus septal-S weight (RVH-RV) / right ventricular systolic pressure (RVSP): preliminary studies in MCT-PH
Experimental: FIG. 10A is a bar graph showing normalized NAMPT activity in the present of FK866 and FK analogues MS-1-82, Rari049, Alp-135 at 0.1, 1, and 10 μM concentrations. FIG. 10B is a bar graph showing RVSP in MCT-induced PH in rats and in MCT-induced PH in rats with Rari049 (2.5 mg/kg, i.p. BID, ×2 wks) (RVSP-right ventricular systolic pressure, RVH-RV hypertrophy-ratio of RV and LV plus septal-S weight).

[2] = biological target: T1, NAMPT (Homo sapiens, UniProt P43490); assay: CycLex NAMPT Colorimetric Assay, NAMPT enzymatic activity; assay type: biochemical; conditions: three doses 0.1, 1, 10 uM
T1 construct: purchased MBL International (Woburn, Mass.)
T1 sequence (P43490 whole entry): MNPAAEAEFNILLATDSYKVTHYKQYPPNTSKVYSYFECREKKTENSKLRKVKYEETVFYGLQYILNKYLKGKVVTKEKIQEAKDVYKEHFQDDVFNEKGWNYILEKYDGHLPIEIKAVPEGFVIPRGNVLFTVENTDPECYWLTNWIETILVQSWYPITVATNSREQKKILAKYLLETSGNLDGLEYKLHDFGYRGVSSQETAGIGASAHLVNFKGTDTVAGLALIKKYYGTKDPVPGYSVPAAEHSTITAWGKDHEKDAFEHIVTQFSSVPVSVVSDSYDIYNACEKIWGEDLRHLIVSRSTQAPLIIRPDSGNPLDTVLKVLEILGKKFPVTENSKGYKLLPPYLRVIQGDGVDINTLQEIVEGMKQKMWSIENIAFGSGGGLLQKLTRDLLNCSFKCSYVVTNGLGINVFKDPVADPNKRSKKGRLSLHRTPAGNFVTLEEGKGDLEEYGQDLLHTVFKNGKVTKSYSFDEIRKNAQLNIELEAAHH
Experimental: CycLex NAMPT Colorimetric Assay Kit was purchased from MBL International (Woburn, Mass.) and utilized to screen the effect of putative NAMPT inhibitors on NAMPT enzymatic activity. Three doses (0.1, 1, 10 uM) of each NAMPT inhibitors was used following the manufacturer's instruction.

[3] = tested on: Human pulmonary artery endothelial cells (EC); assay: TNF-α-induced apoptosis / PARP-1 cleavage in human lung endothelial cells; assay type: cell-based
Experimental: Human pulmonary artery endothelial cells (EC) were obtained from Lonza (Walkersville Md.) and were cultured in the manufacturer's recommended endothelial growth medium-2 (EGM-2). Cells were grown at 37° C. in a 5% CO2 incubator, and passages 6 to 9 were used for experiments. Media was changed one day before experimentation. For RNA interference, siRNAs were transfected into EC at a final concentration of 100 nM for 72 hrs. Protein quantification and Western blot analysis were performed according to standard procedures.
(B) ECs were pre-treated (6 hrs) with either vehicle (DMSO) or with a caspase-3 inhibitor (z-DEVD-fmk, 20 μM) prior to 24 hr challenge with TNF-α (30 ng/ml), FasL (100 ng/ml) or tBHP (5 mM). […] (C) ECs were transfected with myc-tagged NAMPT plasmid resulting in marked NAMPT overexpression. […] Error bars indicate SEM of three independent experiments.

[4] = tested on: hPASMCs; assay: TUNEL apoptosis assay in hPASMCs; assay type: cell-based, human; conditions: FK866 10 μM, 24 hrs
Experimental: hPASMCs were cultured on a coverslip in a 6-well cell culture plate. H2O2 (100 μM, Sigma, Cat. #ab66110) was used as an apoptosis stimulus for hPASMCs.
When cell confluence reached 95%, cells were starved for 3 hrs and stimulated by H2O2, FK866 (10 μM), H2O2+rhNAMPT (20 μg/ml) or H2O2+rhNAMPT (20 μg/ml) with FK866 (10 μM) for 24 hrs. Cell apoptosis was examined using an in situ BrdU-Red DNA fragmentation (TUNEL) kit. The cells on the coverslips were examined using a Nikon Eclipse E800 fluorescence microscope, and the images were processed by MetaMorph software (Molecular Devices, Inc.). Approximately ten images were taken from each condition, and over 500 cells were counted according to DAPI staining.

[5] = MCT-PH, 2.5 mg/kg, i.p. BID, ×2 wks

Molecule | hypertrophy-ratio of RV and LV plus septal-S weight (RVH-RV) [1] | right ventricular systolic pressure (RVSP) [1] | NAMPT enzyme inhibitory properties [2] | further results
O=C(/C=C/c1cccnc1)NCCCCCCn1c2ccccc2c2ccccc21 [Alp135] | reducing | reducing | excellent dose-dependent enzyme inhibitory properties | –
O=C(/C=C/c1cccnc1)NCCCCC1CCN(C(=O)c2ccccc2)CC1 [FK866, (E)-N-[4-(1-Benzoylpiperidin-4-yl)butyl]-3-pyridin-3-ylprop-2-enamide, reference compound] | – | – | – | TNFα-induced EC apoptosis ([3]; human lung EC): failed to alter; hPASMC apoptosis (TUNEL positive cells) [4]: promotes
O=C(/C=C/c1cccnc1)NCCCCCCNC(=O)c1cccnc1 [MS-1-82] | – | – | excellent dose-dependent enzyme inhibitory properties | –
O=C(/C=C/c1cccnc1)NCCCCCCn1c(-c2ccccc2)cc2ccccc21 [Rari049] | reducing | reducing | excellent dose-dependent enzyme inhibitory properties | RVH [1, 5]: reducing; RVSP [1, 5]: reducing
z-DEVD-fmk | – | – | – | PARP-1 cleavage induced by TNF-α ([3]; pre-incubated 6 hrs, 20 μM, TNF-α 30 ng/ml 24 hrs, vs vehicle (DMSO)): significantly reduced
